Assay results: patent US11377441B2, “Covalent inhibitors of KRAS” (Araxes Pharma LLC, priority 2017, dated 2022)

Biological target: T1, KRAS G12C 1-169, his-tagged protein, GDP-loaded (Homo sapiens, UniProt P01116, G12C)
T1 construct: KRAS G12C 1-169, his-tagged protein, GDP-loaded
Experiment: Biochemical assay: covalent modification of KRAS G12C measured by mass spectrometry (RapidFire/TOF or Q-Exactive)
Assay type: binding
Conditions: covalent binding to (modification of) KRAS G12C after a ten minute incubation period
Procedure, shortened: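 GDP-loaded KRAS G12C 1-169 (his-tagged) at 2 μM or 0.5 μM in 20 mM Hepes, 150 mM NaCl, 1 mM MgCl2, incubated with compound at 100, 30 or 10 μM at room temperature for 10 min, 30 min, 2 h or 24 h, then quenched with formic acid. Intact-protein LC-MS, deconvolved; percent modification from modified versus unmodified protein.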

SMILES | Binding %
C=CC(=O)N1C[C@H](C)N(c2nc(OC[C@H]3CCCN3C)nc3c(F)c(-c4c(C)ccc5[nH]nc(C)c45)c(Cl)cc23)C[C@H]1C [Compound 161, 1-((2R,5S)-4-(6-chloro-7-(3,5-dimethyl-1H-indazol-4-yl)-8-fluoro-2-(((R)-1-methylpyrrolidin-2-yl)methoxy)quinazolin-4-yl)-2,5-dimethylpiperazin-1-yl)prop-2-en-1-one] | +++ (+++ indicates binding activity greater than 80%)
C=CC(=O)N1C[C@H](C)N(c2nc(C#CCN(C)C)nc3c(F)c(-c4c(C)ccc5[nH]nc(C6CC6)c45)c(Cl)cc23)C[C@H]1C [Compound 240, 1-((2R,5S)-4-(6-chloro-7-(3-cyclopropyl-5-methyl-1H-indazol-4-yl)-2-(3-(dimethylamino)prop-1-ylnyl)-8-fluoroquinazolin-4-yl)-2,5-dimethylpiperazin-1-yl)prop-2-en-1-one] | + (+ indicates binding activity greater than 0% and up to 50%)
C=CC(=O)N1C[C@@H](C)N(c2nc(N3CC(N(C)C)C3)nc3c(F)c(-c4c(C)ccc5[nH]nc(C6CC6)c45)c(Cl)cc23)C[C@@H]1C (atropisomer, axis not shown) [Compound 253, 1-((2S,5R)-4-((R)-6-chloro-7-(3-cyclopropyl-5-methyl-1H-indazol-4-yl)-2-(3-(dimethylamino)azetidin-1-yl)-8-fluoroquinazolin-4-yl)-2,5-dimethylpiperazin-1-yl)prop-2-en-1-one] | + (+ indicates binding activity greater than 0% and up to 50%)
C=CC(=O)N1C[C@H](C)N(c2nc(N3CC(N(C)C)C3)nc3c(F)c(-c4ccc(Cl)c5[nH]ncc45)c(Cl)cc23)C[C@H]1C [Compound 30, 1-((2R,5S)-4-(6-chloro-7-(7-chloro-1H-indazol-4-yl)-2-(3-(dimethylamino)azetidin-1-yl)-8-fluoroquinazolin-4-yl)-2,5-dimethylpiperazin-1-yl)prop-2-en-1-one] | + (+ indicates binding activity greater than 0% and up to 50%)
C=CC(=O)N1C[C@H](C)N(c2nc(N3CC(N(C)C)C3)nc3c(F)c(-c4c(C)ccc5ocnc45)c(Cl)cc23)C[C@H]1C [Compound 125, 1-((2R,5S)-4-(6-chloro-2-(3-(dimethylamino)azetidin-1-yl)-8-fluoro-7-(5-methylbenzo[d]oxazol-4-yl)quinazolin-4-yl)-2,5-dimethylpiperazin-1-yl)prop-2-en-1-one] | ++ (++ indicates binding activity from 50 to 80%)
C=CC(=O)N1C[C@H](C)N(c2nc(OC[C@@H]3CCCN3C(C)C)nc3c(F)c(-c4c(C)ccc5cnn(C)c45)c(Cl)cc23)C[C@H]1C [Compound 238, 1-((2R,5S)-4-(6-chloro-7-(1,6-dimethyl-1H-indazol-7-yl)-8-fluoro-2-(((S)-1-isopropylpyrrolidin-2-yl)methoxy)quinazolin-4-yl)-2,5-dimethylpiperazin-1-yl)prop-2-en-1-one] | ++ (++ indicates binding activity from 50 to 80%)
C=CC(=O)N1C[C@H](C)N(c2nc(O[C@H](C)CN(C)C)nc3c(F)c(-c4c(C)ccc5[nH]nc(C)c45)c(Cl)cc23)C[C@H]1C [Compound 232, 1-((2R,5S)-4-(6-chloro-7-(3,5-dimethyl-1H-indazol-4-yl)-2-((R)-1-(dimethylamino)propan-2-yloxy)-8-fluoroquinazolin-4-yl)-2,5-dimethylpiperazin-1-yl)prop-2-en-1-one] | ++ (++ indicates binding activity from 50 to 80%)
